Assay results as given in patent US4501914A, “2-Hydroxy-3-(o-methoxy-phenoxy)propyl 2-(p-isobutyl-phenyl)-propionate and pharmaceutical compositions containing the same” (priority 1982, dated 1985).

Tests used:
[1] = test system: Pleurisy induced by carrageenin; test: Pleurisy induced by carrageenin (Vinegar et al.); assay type: in vivo, Sprague-Dawley rats; parameters: leukocytes × 1000: unit not given here; conditions: for % inhib. over control (leukocytes) / % inhib. over control (volume of exudate) / leukocytes × 1000 / Volume (pleural exudate): 100 mg/kg per os; for Volume (pleural exudate): unit assumed
Description: Sprague-Dawley rats of both sexes weighing between 150 and 200 g were used. The animals were divided into "at random" groups and were starved on the previous day with water ad lib.
The compounds in question were administered orally 30 minutes before the intrapleural injection at an equal dose by weight of 100 mg/kg.

[2] = test system: bronchial secretion; test: Mucosecretolytic activity (technique of Giraldez et al.); assay type: in vivo, male rabbits; conditions: for % increase of bronchial secretion over controls: 500 mg/kg os
Description: Mucosecretolytic action was tested on male rabbits using the technique of Giraldez, Grass and Bruseghini (Abstr.Comp.Int.Pharm. N. 1086--Paris 1978) by means of oral administration and comparing AFP 860 with guaiaphenesine at the dosages given below.

[3] = test system: Subplantar oedema induced by carrageenin; test: Anti-inflammatory activity - carrageenin oedema; assay type: in vivo, rats; conditions: for AREA % Absolute value / AREA % inhibition over controls: times 0-5
Description: The tests were carried out on rats, using a test in which a subplantar oedema was induced by carrageenin.
AFP 860 and, for comparison, 2-(p-isobutylphenyl)propionic acid (Ibuprofen) were administered orally 30 minutes before the carrageenin at the dosages specified below.
When the oedema had been induced, the animals in each group were monitored, every 60 minutes for 5 consecutive hours in order to ascertain the development of the inflammatory process.

[4] = test system: Hyperthermia induced by yeast; test: Antipyretic activity - hyperthermia induced by yeast (Boisser et al.); assay type: in vivo, male rats; conditions: for Rectal Temperature, 1 h / Rectal Temperature, 2 h / Rectal Temperature, 3 h / Rectal Temperature, 4 h / Rectal Temperature, 5 h / Rectal Temperature, basic / % inhib. over controls (hyperthermia): p.o., Ibuprofen 100 mg/kg, AFP 860 150 mg/kg
[5] = test system: bronchosecretogogue activity; test: Bronchosecretogogue activity (Mawatari's technique); assay type: in vivo, Wistar rats; conditions: for % increase of FlNa (sodium fluorescein) with respect to controls: 500 mg/kg os
Description: Bronchosecretogogue activity was determined in Wistar rats by means of per os administration using the method of Mawatari (Mawatari H., Kagoshima Daiagaku Igaku-Zasshi, 27, 561 (1976), and comparing AFP 860 and guaiaphenesine at the dosages given below. The results are shown in Table 8.

[6] = test system: gastric mucosa; test: Gastrolesive action; conditions: for Mean dimensions (mm) Ulcers: 5 hours and 30 minutes after treatment, os, Ibuprofen 100 mg/kg, AFP 860 150 mg/kg
[7] = Acute toxicity (Litchfield and Wilcoxon's Method), rat; conditions: in vivo, po, per os
Description: (§1) The acute toxicity was tested on various species of animal using Litchfield and Wilcoxon's Method (J. Pharm. Exp. Therap., 96, 99-113 (1949).

[8] = Acute toxicity (Litchfield and Wilcoxon's Method), mouse; conditions: in vivo, po, per os
Description: as §1

[9] = test system: contortions induced by phenylquinone; test: Analgesic activity - phenylquinone contortions (Siegmund et al.); assay type: in vivo, mouse; conditions: for % inhib. over controls (contortions) / Mean No. of Contortions / No. animals undergoing contortions: 100 mg/kg os
[10] = Pharmacokinetics, Ibuprofen plasma levels; assay type: in vivo, Charles River albino rats
[11] = Pulmonary tropism, Ibuprofen lung/plasma concentration ratio; assay type: in vivo, Charles River albino rats; conditions: rat
[12] = Acute toxicity (Litchfield and Wilcoxon's Method), rabbit; conditions: in vivo, po, per os
Description: as §1

[13] = test system: muscle relaxation; test: Muscle relaxant activity, metal grille test (Kondziella); assay type: in vivo; conditions: mouse, per os, AFP 860 150 mg/kg, mephenesine 100 mg/kg
Text: Use was made of the method of Kondziella (1964) which consists in suspending the mice from a metal grille and in recording the number of animals which remain suspended for more than 30 seconds. The animals which fall off during this time period are considered to be subject to muscle relaxation.
A metal grille having a 7 mm mesh and a surface area of 2×2 m disposed horizontally at 1.5 m from the ground was used for this test. The mice were selected on the day preceding the test, rejecting those which fell within 30 seconds. These were then divided into 7 at random groups and starved. AFP 860 and, for comparison purposes, mephenesine both suspended in 1% carboxymethylcellulose were administered per os at dosages of 150 mg/kg in the case of AFP 860 and 100 mg/kg in the case of mephenesine. A third group of mice acting as the control received 1% CMC in equal volumes to those used for the mice treated with the drugs.
For each mouse the grille suspension tests were carried out 15 and 30 minutes after administration of the drugs in order to enable the evaluation of the time of maximum activity and then every 30 minutes until the muscle relaxant effect had completely disappeared in order to establish the duration of this effect.
The parameter used for evaluating the results was the percentage of animals subject to muscle relaxation with respect to those treated.

[14] = background statement; cited from earlier work
[15] = per os, Ibuprofen 100 mg/kg, AFP 860 150 mg/kg

COc1ccccc1OCC(O)COC(=O)C(C)c1ccc(CC(C)C)cc1 (stereo not shown) [AFP 860, 2-hydroxy-3-(o-methoxyphenoxy)propyl 2-(p-isobutyl-phenyl)-propionate]
% inhib. over control (leukocytes) ([1]; 5 hours): 70.75% | % inhib. over control (volume of exudate) ([1]; 5 hours): 43.18% | leukocytes × 1000 ([1]; 5 hours): 5,130 × 1000 | Volume (pleural exudate) ([1]; 5 hours): 0.54 mL | % inhib. over control (leukocytes) ([1]; 24 hours): 60.75% | % inhib. over control (volume of exudate) ([1]; 24 hours): 48.19% | leukocytes × 1000 ([1]; 24 hours): 7,190 × 1000 | Volume (pleural exudate) ([1]; 24 hours): 0.43 mL | protective action (in words) ([1]; after 24 hours, compared with Ibuprofen): much greater than that of Ibuprofen | anti-inflammatory activity (in words) ([1]; pleurisy, equal doses by weight, compared with the comparison drug (Ibuprofen)): greater in absolute terms and of longer duration | % increase of bronchial secretion over controls [2]: 32.7% | secretolytic activity (in words) ([2]; compared with guaiaphenesine at the same dosages by weight): remarkable secretolytic activity which is comparable with that of guaiaphenesine | anti-inflammatory activity (in words) ([3]; carrageenin oedema, compared with Ibuprofen): excellent anti-inflammatory activity which is comparable to that of Ibuprofen | Mean paw volume during treatment, time 0 ([3]; time 0, per os, Ibuprofen 100 mg/kg, AFP 860 150 mg/kg): 22.1 | Mean paw volume during treatment, time 1 ([3]; time 1 (every 60 minutes), per os, Ibuprofen 100 mg/kg, AFP 860 150 mg/kg): 27.1 | Mean paw volume during treatment, time 2 ([3]; time 2 (every 60 minutes), per os, Ibuprofen 100 mg/kg, AFP 860 150 mg/kg): 30.2 | Mean paw volume during treatment, time 3 ([3]; time 3 (every 60 minutes), per os, Ibuprofen 100 mg/kg, AFP 860 150 mg/kg): 31.6 | Mean paw volume during treatment, time 4 ([3]; time 4 (every 60 minutes), per os, Ibuprofen 100 mg/kg, AFP 860 150 mg/kg): 32.2 | Mean paw volume during treatment, time 5 ([3]; time 5 (every 60 minutes), per os, Ibuprofen 100 mg/kg, AFP 860 150 mg/kg): 34.7 | AREA % Absolute value [3, 15]: 176.5 | AREA % inhibition over controls [3, 15]: 43.2% | Rectal Temperature, 1 h [4]: 37.7 °C | Rectal Temperature, 2 h [4]: 37.7 °C | Rectal Temperature, 3 h [4]: 37.5 °C | Rectal Temperature, 4 h [4]: 37.3 °C | Rectal Temperature, 5 h [4]: 37.2 °C | Rectal Temperature, basic [4]: 38.4 °C | antipyretic activity (in words) ([4]; compared with Ibuprofen): very good antipyretic activity, which is in practice the same as that of Ibuprofen | % inhib. over controls (hyperthermia) [4]: 127.0% | % increase of FlNa (sodium fluorescein) with respect to controls [5]: 24.5% | bronchosecretogogue effect (in words) ([5]; compared with guaiaphenesine, equal doses by weight): considerable effect as a bronchosecretogogue which may in practice be considered superimposable to that of guaiaphenesine | Mean dimensions (mm) Ulcers [6]: 0.8 ± 0.3 mm | gastrolesivity (in words) ([6]; compared with Ibuprofen): much lower than the Ibuprofen | LD50 [7]: 2510 mg/kg | LD50 [8]: 1850 mg/kg | analgesic activity (in words) ([9]; 100 mg/kg orally, compared with Ibuprofen at equal dosage by weight): slightly inferior to that of Ibuprofen | % inhib. over controls (contortions) [9]: 70.45% | Mean No. of Contortions [9]: 3.9 ± 1.4 | No. animals undergoing contortions [9]: 2/10 | Ibuprofen plasma levels (in words) ([10]; end of first hour to sixth hour, AFP 860 versus Ibuprofen per se): higher after the administration of AFP 860 than after the administration of Ibuprofen per se | latency and bio-availability (in words) ([10]; with respect to Ibuprofen and guaiaphenesine): greater degree of latency and an improved bio-availability both with respect to Ibuprofen and guaiaphenesine | pulmonary tropism (in words) ([11]; in vivo): marked pulmonary tropism | LD50 [12]: 3300 mg/kg | % animals subject to muscle relaxation [13]: 60%

Cc1ccccc1OCC(O)CO (stereo not shown) [Mephenesine, reference compound]
% animals subject to muscle relaxation [13]: 60%

COc1ccccc1OCC(O)CO (stereo not shown) [Guaiaphenesine, 3-(o-methoxyphenoxy)-1,2-propandiol, reference compound]
% increase of bronchial secretion over controls [2]: 34.4% | % increase of FlNa (sodium fluorescein) with respect to controls [5]: 20.3%

CC(C)Cc1ccc(C(C)C(=O)O)cc1 (stereo not shown) [Ibuprofen, 2-(p-isobutylphenyl)propionic acid, reference compound]
% inhib. over control (leukocytes) ([1]; 5 hours): 69.32% | leukocytes × 1000 ([1]; 5 hours): 5,380 × 1000 | % inhib. over control (leukocytes) ([1]; 24 hours): 7.47% | leukocytes × 1000 ([1]; 24 hours): 16,950 × 1000 | AREA % Absolute value [3, 15]: 184.0 | AREA % inhibition over controls [3, 15]: 40.8% | Rectal Temperature, 1 h [4]: 38.0 °C | Rectal Temperature, 2 h [4]: 37.7 °C | Rectal Temperature, 3 h [4]: 37.3 °C | Rectal Temperature, 4 h [4]: 37.5 °C | Rectal Temperature, 5 h [4]: 37.4 °C | Rectal Temperature, basic [4]: 38.8 °C | % inhib. over controls (hyperthermia) [4]: 119.0% | Mean dimensions (mm) Ulcers [6]: 8.7 ± 1.4 mm | gastric lesions (in words) [14]: considerable gastric lesions | % inhib. over controls (contortions) [9]: 82.26% | Mean No. of Contortions [9]: 1.8 ± 0.6 | No. animals undergoing contortions [9]: 1/10 | Tmax ([10]; rat, plasma, po, after Ibuprofen 27 mg/kg per os, read-out: time of Ibuprofen peak in plasma (converted)): 30 min | Cmax ([10]; rat, plasma, po, per os, equimolar: Ibuprofen 27 mg/kg, AFP 860 50 mg/kg, read-out: Ibuprofen peak plasma level): 24000 ng/mL | AUC ([10]; rat, plasma, po, per os, equimolar: Ibuprofen 27 mg/kg, AFP 860 50 mg/kg, read-out: area under the plasma level curve (AUC) for Ibuprofen): 49000 ng·h/mL | Kp at 0.5 h ([11]; lung, po, 30 mins, per os, Ibuprofen 27 mg/kg, AFP 860 50 mg/kg, read-out: Ibuprofen concentration ratio between lung and plasma): 0.2 | Kp at 1 h ([11]; lung, po, 1 hour, per os, Ibuprofen 27 mg/kg, AFP 860 50 mg/kg, read-out: Ibuprofen concentration ratio between lung and plasma): 0.3
